Measurements as given in ChEMBL document CHEMBL3885881, “DrugMatrix”.

Organism: Rattus norvegicus
Assay: DrugMatrix - Regimen: Daily Repeat
Assay type: toxicity, organism-based, Sprague-Dawley
Parameters: regimen Daily Repeat, gender Male, age 6-8 weeks
Details: in vivo, sc, route subcutaneous, […]; for ABSOLUTE BASOPHIL / ABSOLUTE EOSINOPHIL / ABSOLUTE LYMPHOCYTE / ABSOLUTE MONOCYTE / ABSOLUTE SEGMENTED NEUTROPHIL / BASOPHIL / EOSINOPHIL / ERYTHROCYTE COUNT / HEMATOCRIT / HEMOGLOBIN / LEUKOCYTE COUNT / LYMPHOCYTE / MEAN CORPUSCULAR HEMOGLOBIN / MEAN CORPUSCULAR HEMOGLOBIN CONCENTRATION / MEAN CORPUSCULAR VOLUME / MONOCYTE / NEUTROPHIL / NUCLEATED RED BLOOD CELLS / PLATELET COUNT: tissue Blood; for ALANINE AMINOTRANSFERASE / ALBUMIN / ALKALINE PHOSPHATASE / ASPARTATE AMINOTRANSFERASE / BLOOD UREA NITROGEN / CARBON DIOXIDE / CHLORIDE / CHOLESTEROL / CREATINE PHOSPHOKINASE / CREATININE / GLUCOSE / LACTATE DEHYDROGENASE / LIPASE / PHOSPHORUS / POTASSIUM / SODIUM / TOTAL BILIRUBIN / TOTAL PROTEIN / URIC ACID: tissue Plasma
[1] = 68 mg/kg, 72 h, dose level High, time 3 day
[2] = 68 mg/kg, 120 h, dose level High, time 5 day
[3] = 72 h, dose 6.8 mg/Kg, dose level Low, time 3 day
[4] = 120 h, dose 6.8 mg/Kg, dose level Low, time 5 day

Oc1cccc2cccnc12 [OXYQUINOLINE]
ABSOLUTE BASOPHIL [1]: 0 CELLS/uL | ABSOLUTE EOSINOPHIL [1]: 246.33 CELLS/uL | ABSOLUTE LYMPHOCYTE [1]: 13064.33 CELLS/uL | ABSOLUTE MONOCYTE [1]: 405.33 CELLS/uL | ABSOLUTE SEGMENTED NEUTROPHIL [1]: 1850.67 CELLS/uL | BASOPHIL [1]: 0% | EOSINOPHIL [1]: 1.67% | ERYTHROCYTE COUNT [1]: 5.38 x10E6/uL | HEMATOCRIT [1]: 34.33% | HEMOGLOBIN [1]: 12.8 G/DL | LEUKOCYTE COUNT [1]: 15.57 x10E3/uL | LYMPHOCYTE [1]: 83.67% | MEAN CORPUSCULAR HEMOGLOBIN [1]: 23.83 pg | MEAN CORPUSCULAR HEMOGLOBIN CONCENTRATION [1]: 37.33 G/DL | MEAN CORPUSCULAR VOLUME [1]: 63.87 fL | MONOCYTE [1]: 2.67% | NEUTROPHIL [1]: 12% | NUCLEATED RED BLOOD CELLS [1]: 0 /100WBC | PLATELET COUNT [1]: 1290 x10E3/uL | ALANINE AMINOTRANSFERASE [1]: 49.33 u/L | ALBUMIN [1]: 3.73 G/DL | ALKALINE PHOSPHATASE [1]: 444 u/L | ASPARTATE AMINOTRANSFERASE [1]: 72 u/L | BLOOD UREA NITROGEN [1]: 18.67 mg/dL | CARBON DIOXIDE [1]: 26 mmol/L | CHLORIDE [1]: 105 MEQ/L | CHOLESTEROL [1]: 65.33 mg/dL | CREATINE PHOSPHOKINASE [1]: 160.33 u/L | CREATININE [1]: 0.13 mg/dL | GLUCOSE [1]: 169 mg/dL | LACTATE DEHYDROGENASE [1]: 87.67 u/L | LIPASE [1]: 8.67 u/L | PHOSPHORUS [1]: 12.4 mg/dL | POTASSIUM [1]: 6.22 MEQ/L | SODIUM [1]: 146.43 MEQ/L | TOTAL BILIRUBIN [1]: 0.2 mg/dL | TOTAL PROTEIN [1]: 5.63 G/DL | URIC ACID [1]: 1.07 mg/dL | ABSOLUTE BASOPHIL [2]: 0 CELLS/uL | ABSOLUTE EOSINOPHIL [2]: 367.33 CELLS/uL | ABSOLUTE LYMPHOCYTE [2]: 11402.67 CELLS/uL | ABSOLUTE MONOCYTE [2]: 397.67 CELLS/uL | ABSOLUTE SEGMENTED NEUTROPHIL [2]: 1465.67 CELLS/uL | BASOPHIL [2]: 0% | EOSINOPHIL [2]: 2.67% | ERYTHROCYTE COUNT [2]: 5.88 x10E6/uL | HEMATOCRIT [2]: 36.73% | HEMOGLOBIN [2]: 13.63 G/DL | LEUKOCYTE COUNT [2]: 13.63 x10E3/uL | LYMPHOCYTE [2]: 83.33% | MEAN CORPUSCULAR HEMOGLOBIN [2]: 23.2 pg | MEAN CORPUSCULAR HEMOGLOBIN CONCENTRATION [2]: 37.13 G/DL | MEAN CORPUSCULAR VOLUME [2]: 62.53 fL | MONOCYTE [2]: 3% | NEUTROPHIL [2]: 11% | NUCLEATED RED BLOOD CELLS [2]: 0 /100WBC | PLATELET COUNT [2]: 1567 x10E3/uL | ALANINE AMINOTRANSFERASE [2]: 37.67 u/L | ALBUMIN [2]: 3.87 G/DL | ALKALINE PHOSPHATASE [2]: 326.67 u/L | ASPARTATE AMINOTRANSFERASE [2]: 67 u/L | BLOOD UREA NITROGEN [2]: 16.67 mg/dL | CARBON DIOXIDE [2]: 25.33 mmol/L | CHLORIDE [2]: 105 MEQ/L | CHOLESTEROL [2]: 75.33 mg/dL | CREATINE PHOSPHOKINASE [2]: 175 u/L | CREATININE [2]: 0.16 mg/dL | GLUCOSE [2]: 162 mg/dL | LACTATE DEHYDROGENASE [2]: 86.67 u/L | LIPASE [2]: 8 u/L | PHOSPHORUS [2]: 13.33 mg/dL | POTASSIUM [2]: 6.17 MEQ/L | SODIUM [2]: 147.4 MEQ/L | TOTAL BILIRUBIN [2]: 0.17 mg/dL | TOTAL PROTEIN [2]: 6.03 G/DL | URIC ACID [2]: 2.03 mg/dL | ABSOLUTE BASOPHIL [3]: 0 CELLS/uL | ABSOLUTE EOSINOPHIL [3]: 0 CELLS/uL | ABSOLUTE LYMPHOCYTE [3]: 14772 CELLS/uL | ABSOLUTE MONOCYTE [3]: 208 CELLS/uL | ABSOLUTE SEGMENTED NEUTROPHIL [3]: 1086.67 CELLS/uL | BASOPHIL [3]: 0% | EOSINOPHIL [3]: 0% | ERYTHROCYTE COUNT [3]: 5.93 x10E6/uL | HEMATOCRIT [3]: 37.03% | HEMOGLOBIN [3]: 13.73 G/DL | LEUKOCYTE COUNT [3]: 16.07 x10E3/uL | LYMPHOCYTE [3]: 91.33% | MEAN CORPUSCULAR HEMOGLOBIN [3]: 23.23 pg | MEAN CORPUSCULAR HEMOGLOBIN CONCENTRATION [3]: 37.07 G/DL | MEAN CORPUSCULAR VOLUME [3]: 62.63 fL | MONOCYTE [3]: 1.33% | NEUTROPHIL [3]: 7.33% | NUCLEATED RED BLOOD CELLS [3]: 0.33 /100WBC | PLATELET COUNT [3]: 1308.67 x10E3/uL | ALANINE AMINOTRANSFERASE [3]: 45.67 u/L | ALBUMIN [3]: 4.3 G/DL | ALKALINE PHOSPHATASE [3]: 363.67 u/L | ASPARTATE AMINOTRANSFERASE [3]: 73.33 u/L | BLOOD UREA NITROGEN [3]: 15 mg/dL | CARBON DIOXIDE [3]: 24.33 mmol/L | CHLORIDE [3]: 103 MEQ/L | CHOLESTEROL [3]: 68.67 mg/dL | CREATINE PHOSPHOKINASE [3]: 130.33 u/L | CREATININE [3]: 0.2 mg/dL | GLUCOSE [3]: 142.67 mg/dL | LACTATE DEHYDROGENASE [3]: 83.33 u/L | LIPASE [3]: 8.67 u/L | PHOSPHORUS [3]: 11.27 mg/dL | POTASSIUM [3]: 6.77 MEQ/L | SODIUM [3]: 146.07 MEQ/L | TOTAL BILIRUBIN [3]: 0.2 mg/dL | TOTAL PROTEIN [3]: 5.57 G/DL | URIC ACID [3]: 1.63 mg/dL | ABSOLUTE BASOPHIL [4]: 0 CELLS/uL | ABSOLUTE EOSINOPHIL [4]: 182.67 CELLS/uL | ABSOLUTE LYMPHOCYTE [4]: 12749.33 CELLS/uL | ABSOLUTE MONOCYTE [4]: 601.33 CELLS/uL | ABSOLUTE SEGMENTED NEUTROPHIL [4]: 1500 CELLS/uL | BASOPHIL [4]: 0% | EOSINOPHIL [4]: 1.33% | ERYTHROCYTE COUNT [4]: 6.16 x10E6/uL | HEMATOCRIT [4]: 37.9% | HEMOGLOBIN [4]: 13.87 G/DL | LEUKOCYTE COUNT [4]: 15.03 x10E3/uL | LYMPHOCYTE [4]: 84.67% | MEAN CORPUSCULAR HEMOGLOBIN [4]: 22.53 pg | MEAN CORPUSCULAR HEMOGLOBIN CONCENTRATION [4]: 36.6 G/DL | MEAN CORPUSCULAR VOLUME [4]: 61.5 fL | MONOCYTE [4]: 4% | NEUTROPHIL [4]: 10% | NUCLEATED RED BLOOD CELLS [4]: 0 /100WBC | PLATELET COUNT [4]: 1278.67 x10E3/uL | ALANINE AMINOTRANSFERASE [4]: 45 u/L | ALBUMIN [4]: 4.2 G/DL | ALKALINE PHOSPHATASE [4]: 341 u/L | ASPARTATE AMINOTRANSFERASE [4]: 77 u/L | BLOOD UREA NITROGEN [4]: 19 mg/dL | CARBON DIOXIDE [4]: 24.33 mmol/L | CHLORIDE [4]: 107 MEQ/L | CHOLESTEROL [4]: 75.33 mg/dL | CREATINE PHOSPHOKINASE [4]: 227.33 u/L | CREATININE [4]: 0.17 mg/dL | GLUCOSE [4]: 154.33 mg/dL | LACTATE DEHYDROGENASE [4]: 324 u/L | LIPASE [4]: 9 u/L | PHOSPHORUS [4]: 12.23 mg/dL | POTASSIUM [4]: 6.39 MEQ/L | SODIUM [4]: 146.97 MEQ/L | TOTAL BILIRUBIN [4]: 0.13 mg/dL | TOTAL PROTEIN [4]: 6.37 G/DL | URIC ACID [4]: 1.5 mg/dL
